Assay results as given in patent US6737383B1, “Herbicidal oxadiazolidines” (priority 1999, dated 2004).

How the values were obtained:
soybean = experiment: Test B pre/postemergence soybean; format: in vivo, Glycine max; conditions: for Soybean plant response rating (0 to 10 scale): 0 is no effect
In short: (§1)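 Herbicidal effect was estimated by eye on a ten-point control scale after plants spent twelve to sixteen days in a greenhouse following soil or foliar treatment. Foliar sprays targeted plants at one to four leaves; all doses were formulated in a non-phytotoxic solvent with surfactant.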

morningglory = experiment: Test B pre/postemergence morningglory; format: in vivo, Ipomoea hederacea; conditions: for Morningglory plant response rating (0 to 10 scale): 0 is no effect
In short: as §1

cocklebur = experiment: Test B pre/postemergence cocklebur; format: in vivo, Xanthium strumarium; conditions: for Cocklebur plant response rating (0 to 10 scale): 0 is no effect
In short: as §1

pigweed = experiment: Test B pre/postemergence pigweed; format: in vivo, Amaranthus retroflexus; conditions: for Redroot pigweed plant response rating (0 to 10 scale): 0 is no effect
In short: as §1

[1] = Postemergence, Rate 125 g/ha, scale of 0 to 10 where 0 is no effect and 10 is complete control
[2] = Postemergence, Rate 1000 g/ha, scale 0 to 10 (0 no effect, 10 complete control)
[3] = Preemergence, Rate 62 g/ha, scale 0 to 10 (0 no effect, 10 complete control)
[4] = Preemergence, Rate 125 g/ha, 10 is complete control
[5] = Preemergence, Rate 250 g/ha, scale 0 to 10, 0 is no effect, 10 is complete control
[6] = Preemergence, Rate 500 g/ha, scale 0 to 10 (0 no effect, 10 complete control)
[7] = Rate 62 g/ha, Postemergence, scale of 0 to 10 where 0 is no effect and 10 is complete control
[8] = Rate 250 g/ha, Postemergence, scale 0 to 10, 0 is no effect, 10 is complete control
[9] = Rate 500 g/ha, Postemergence, scale 0 to 10
[10] = Rate 1000 g/ha, Preemergence, scale 0 to 10 (0 no effect, 10 complete control)
[11] = Preemergence, Rate 31 g/ha, visual rating, scale 0 to 10 (0 no effect, 10 complete control)
[12] = Rate 31 g/ha, Postemergence, scale 0 to 10
[13] = Preemergence, Rate 62 g/ha, scale of 0 to 10 where 0 is no effect and 10 is complete control

Compound	Soybean plant response rating (soybean; [1])	Soybean plant response rating (0 to 10 scale) (soybean; [4])	Soybean plant response rating (soybean; [5])	Soybean plant response rating (soybean; [7])	Plant response rating, Soybean (soybean; [8])	Morningglory plant response rating (morningglory; [1])	Morningglory plant response rating (0 to 10 scale) (morningglory; [4])	Morningglory plant response rating (morningglory; [5])	Morningglory plant response rating (morningglory; [7])	Plant response rating, Morningglory (morningglory; [8])	Cocklebur plant response rating (cocklebur; [1])	Cocklebur plant response rating (0 to 10 scale) (cocklebur; [4])	Cocklebur plant response rating (cocklebur; [5])	Cocklebur plant response rating (cocklebur; [7])	Plant response rating, Cocklebur (cocklebur; [8])	Redroot pigweed plant response rating (pigweed; [1])	Redroot pigweed plant response rating (0 to 10 scale) (pigweed; [4])	Redroot pigweed plant response rating (pigweed; [5])	Redroot pigweed plant response rating (pigweed; [7])	Plant response rating, Redroot pigweed (pigweed; [8])	also measured
C=CCn1c(=O)on(C(=O)N(c2ccc(F)cc2F)C2CC2)c1=O [Compound 127]	0	0	0	0	0	0	0	0	0	0	0	0	0	0	0	0	0	3	0	0	Soybean plant response rating (soybean; [2]): 0; Soybean plant response rating (soybean; [3]): 0; Soybean plant response rating (soybean; [6]): 0; Soybean plant response rating (soybean; [9]): 0; Plant response rating, Soybean (soybean; [10]): 0; Morningglory plant response rating (morningglory; [2]): 0; Morningglory plant response rating (morningglory; [3]): 0; Morningglory plant response rating (morningglory; [6]): 0; Morningglory plant response rating (morningglory; [9]): 0; Plant response rating, Morningglory (morningglory; [10]): 0; Cocklebur plant response rating (cocklebur; [2]): 0; Cocklebur plant response rating (cocklebur; [3]): 0; Cocklebur plant response rating (cocklebur; [6]): 0; Cocklebur plant response rating (cocklebur; [9]): 0; Redroot pigweed plant response rating (pigweed; [2]): 0; Redroot pigweed plant response rating (pigweed; [3]): 0; Redroot pigweed plant response rating (pigweed; [6]): 7; Redroot pigweed plant response rating (pigweed; [9]): 0; Plant response rating, Redroot pigweed (pigweed; [10]): 10
CC(C)N(C(=O)n1oc(=O)n(Cc2ccccc2Cl)c1=O)C1=CCCCC1 [Compound 145]	3	0	0	3	4	8	0	0	6	10	0	0	0	0	0	0	0	2	0	0	Soybean plant response rating (soybean; [3]): 0; Soybean plant response rating (soybean; [6]): 0; Soybean plant response rating (soybean; [9]): 5; Morningglory plant response rating (morningglory; [3]): 0; Morningglory plant response rating (morningglory; [6]): 1; Morningglory plant response rating (morningglory; [9]): 10; Cocklebur plant response rating (cocklebur; [3]): 0; Cocklebur plant response rating (cocklebur; [6]): 0; Cocklebur plant response rating (cocklebur; [9]): 0; Redroot pigweed plant response rating (pigweed; [3]): 0; Redroot pigweed plant response rating (pigweed; [6]): 4; Redroot pigweed plant response rating (pigweed; [9]): 2
Cc1noc(C)c1-n1c(=O)on(C(=O)N(c2ccc(F)cc2F)C(C)C)c1=O [Compound 156]	1	0	0	1	1	1	0	0	0	2	0	0	0	0	0	0	4	9	0	0	Soybean plant response rating (soybean; [11]): 0; Soybean plant response rating (soybean; [3]): 0; Morningglory plant response rating (morningglory; [11]): 0; Morningglory plant response rating (morningglory; [3]): 0; Morningglory plant response rating (morningglory; [12]): 0; Cocklebur plant response rating (cocklebur; [11]): 0; Cocklebur plant response rating (cocklebur; [3]): 0; Cocklebur plant response rating (cocklebur; [12]): 0; Redroot pigweed plant response rating (pigweed; [11]): 0; Redroot pigweed plant response rating (pigweed; [3]): 0; Redroot pigweed plant response rating (pigweed; [12]): 0
CCN(Cc1ccccc1)C(=O)n1oc(=O)n(C(C)C)c1=O [Compound 166]	0	0	0	0	2	1	0	0	1	2	0	0	0	0	0	0	0	0	0	2	Soybean plant response rating (soybean; [13]): 0; Soybean plant response rating (soybean; [6]): 2; Soybean plant response rating (soybean; [9]): 3; Morningglory plant response rating (morningglory; [13]): 0; Morningglory plant response rating (morningglory; [6]): 0; Morningglory plant response rating (morningglory; [9]): 2; Cocklebur plant response rating (cocklebur; [13]): 0; Cocklebur plant response rating (cocklebur; [6]): 0; Cocklebur plant response rating (cocklebur; [9]): 0; Redroot pigweed plant response rating (pigweed; [13]): 0; Redroot pigweed plant response rating (pigweed; [6]): 0; Redroot pigweed plant response rating (pigweed; [9]): 3
Cc1ccccc1-n1c(=O)on(C(=O)N(c2cccc(F)c2F)C(C)C)c1=O [Compound 171]	1	0	0	1	1	1	0	0	0	2	0	0	0	0	3	0	0	5	0	0	Soybean plant response rating (soybean; [13]): 0; Soybean plant response rating (soybean; [6]): 0; Soybean plant response rating (soybean; [9]): 3; Morningglory plant response rating (morningglory; [13]): 0; Morningglory plant response rating (morningglory; [6]): 0; Morningglory plant response rating (morningglory; [9]): 2; Cocklebur plant response rating (cocklebur; [13]): 0; Cocklebur plant response rating (cocklebur; [6]): 0; Cocklebur plant response rating (cocklebur; [9]): 3; Redroot pigweed plant response rating (pigweed; [13]): 0; Redroot pigweed plant response rating (pigweed; [6]): 6; Redroot pigweed plant response rating (pigweed; [9]): 5
